Reference: patent publication US9115149B2, “Heterocyclic compounds as inhibitors of fatty acid biosysnthesis for bacterial infections” (Vitas Pharma Research Private Limited, priority 2011, dated 2015)
Values after ≈ are worked out from the molar mass of the structure shown. Read-outs that look alike come from different tables or passages of the source.

Tests used:
[1] = system: Bacillus subtilis (ΔFabI, ΔFabL; Pxylose SaFabI); test: Target specificity: MIC in B. subtilis expressing S. aureus FabI under xylose inducible promoter; type: cell-based
Experimental: To test for target specificity, the MIC was determined in a Bacillus subtilis strain in which the two FabI homologues (FabI and FabL) were deleted and replaced with S. aureus FabI (Sa FabI) under a Xylose inducible promoter. By varying the amount of xylose in the growth medium, the expression of FabI was proportionately modified. Compounds specifically targeting Sa FabI show an increased MIC when higher amounts of FabI are present in the cell (high Xylose concentrations). In contrast, when FabI levels are low, the cell becomes hypersusceptible, reducing the MIC (low Xylose concentrations). […] Shown below are data for target specificity.

[2] = Metabolic stability in mouse liver microsomes; type: in vitro ADME
Experimental: (§1) Shown below are the biological activities of representative compounds of the invention. The compounds were tested by the microbroth dilution method (National committee for Clinical Laboratory Standards, M07-A8, Volume 29, 2009) to determine the Minimum Inhibitory Concentration (MIC) against Methicillin sensitive and resistant Staphylococcus aureus. The MICs in the presence of 10% BSA was also tested. Further, select compounds were tested for metabolic stability using mouse liver microsomes based on published protocols (Journal of Biological Sciences, 2008, 8, 1110-1114).

[3] = system: Staphylococcus aureus (ATCC29213); test: MIC by microbroth dilution, methicillin sensitive S. aureus; type: cell-based; conditions: read-out: Minimum inhibitory concentration (MIC) Staphylococcus aureus (ATCC29213)
Experimental: as §1

[4] = system: Methicillin resistant Staphylococcus aureus (ATCC 33591); test: MIC in the presence of BSA; type: cell-based; conditions: ATCC33591, 10% BSA
Experimental: as §1

[5] = system: Methicillin resistant Staphylococcus aureus (ATCC 33591); test: MIC by microbroth dilution, methicillin resistant S. aureus; type: cell-based; conditions: ATCC33591, read-out: Minimum inhibitory concentration (MIC) Methicillin resistant Staphylococcus aureus (ATCC 33591)
Experimental: as §1

[6] = Pharmacokinetic profile in male Swiss albino mice; conditions: mouse, in vivo
Experimental: The following compounds were dosed to male Swiss albino mice to determine the pharmacokinetic profiles.

[7] = read-out: MIC in the presence of 0.005% Xylose (low Xylose concentration)
[8] = read-out: MIC in the presence of 0.5% Xylose (high Xylose concentration)
[9] = intravenous single dose 5 mg/kg body weight

## Cc1c(CN(C)C(=O)/C=C/c2cnc3c(c2)C2(CCCC2)C(=O)N3)sc2ccccc12 [VT-02-00074, (E)-N-methyl-N-((3-methylbenzo[b]thiophen-2-yl)methyl)-3-(2′-oxo-1′,2′-dihydrospiro[cyclopentane-1,3′-pyrrolo[2,3-b]pyridine]-5′-yl)acrylamide]
[1]; [7]
  MIC: 7.8 ng/mL
[1]; [8]
  MIC: 60 ng/mL
[2]
  Metabolic stability (mouse liver microsomes) % of compound remaining after 30 minutes: 8%
[3]
  MIC: 60 ng/mL (≈ 0.139 µM)
[4]
  MIC: 1000 ng/mL
[5]
  MIC: 60 ng/mL (≈ 0.139 µM)

## CN(Cc1cc2ccccc2n1C)C(=O)/C=C/c1cnc2[nH]ncc2c1 [VT-02-00032, (E)-N-Methyl-N-(1-methyl-1H-indol-2-ylmethyl)-3-(1H-pyrazolo[3,4-b]pyridin-5-yl)-acrylamide]
[1]; [7]
  MIC: 125 ng/mL
[1]; [8]
  MIC: 4000 ng/mL
[3]
  MIC: 4000 ng/mL (≈ 11.6 µM)
[5]
  MIC: 4000 ng/mL (≈ 11.6 µM)

## CN(Cc1cc2ccccc2n1C)C(=O)/C=C/c1cnc2[nH]c3ccccc3c2c1 [VT-02-00034, (E)-N-methyl-N-((1-methyl-1H-indol-2-yl)methyl)-3-(9H-pyrido[2,3-b]indol-3-yl)acrylamide]
[3]
  MIC: > 64000 ng/mL
[5]
  MIC: > 64000 ng/mL

## Cc1ccc2oc(CN(C)C(=O)/C=C/c3ccc4c(c3)C3(CCC3)C(=O)N4)c(C)c2c1 [VT-02-00086, (E)-N-((3,5-dimethylbenzofuran-2-yl)methyl)-N-methyl-3-(2′-oxospiro[cyclobutane-1,3′-indoline]-5′-yl)acrylamide]
[1]; [7]
  MIC: 60 ng/mL
[1]; [8]
  MIC: 500 ng/mL
[2]
  Metabolic stability (mouse liver microsomes) % of compound remaining after 30 minutes: 26%
[3]
  MIC: 500 ng/mL (≈ 1.21 µM)
[4]
  MIC: 8000 ng/mL
[5]
  MIC: 500 ng/mL (≈ 1.21 µM)

## CN(Cc1cc2ccccc2n1C)C(=O)/C=C/c1cnc2c(c1)CC(=O)N2 [VT-02-00050, (E)-N-methyl-N-((1-methyl-1H-indol-2-yl)methyl)-3-(2-oxo-2,3-dihydro-1H-pyrrolo[2,3-b]pyridin-5-yl)acrylamide]
[3]
  MIC: 2000 ng/mL (≈ 5.55 µM)
[5]
  MIC: 2000 ng/mL (≈ 5.55 µM)

## CN(Cc1cc2ccccc2s1)C(=O)/C=C/c1cnc2c(c1)C(C)(C)C(=O)N2 [VT-02-00066, (E)-N-(benzo[b]thiophen-2-ylmethyl)-3-(3,3-dimethyl-2-oxo-2,3-dihydro-1H-pyrrolo[2,3-b]pyridin-5-yl)-N-methylacrylamide]
[1]; [7]
  MIC: 7.8 ng/mL
[1]; [8]
  MIC: 1000 ng/mL
[2]
  Metabolic stability (mouse liver microsomes) % of compound remaining after 30 minutes: 29%
[3]
  MIC: 500 ng/mL (≈ 1.28 µM)
[4]
  MIC: 4000 ng/mL
[5]
  MIC: 500 ng/mL (≈ 1.28 µM)

## CN(Cc1cc2ccccc2n1C)C(=O)/C=C/c1cnc2[nH]c(=O)oc2c1 [VT-02-00058, (E)-N-methyl-N-((1-methyl-1H-indol-2-yl)methyl)-3-(2-oxo-2,3-dihydrooxazolo[4,5-b]pyridin-6-yl)acrylamide]
[3]
  MIC: > 16000 ng/mL
[5]
  MIC: > 16000 ng/mL

## CN1CCC(Nc2n[nH]c3ncc(/C=C/C(=O)N(C)Cc4cc5ccccc5n4C)cc23)CC1 [VT-02-00037, (E)-N-methyl-N-((1-methyl-1H-indol-2-yl)methyl)-3-(3-(1-methylpiperidin-4-ylamino)-1H-pyrazolo[3,4-b]pyridin-5-yl)acrylamide]
[3]
  MIC: > 32000 ng/mL
[5]
  MIC: > 32000 ng/mL

## CN(Cc1cc2ccccc2n1C)C(=O)/C=C/c1cnc2[nH]c(=O)n(C)c2c1 [VT-02-00043, (E)-N-Methyl-N-(1-methyl-1H-indol-2-ylmethyl)-3-(1-methyl-2-oxo-2,3-dihydro-1H-imidazo[4,5-b]pyridin-6-yl)-acrylamide]
[1]; [7]
  MIC: 7.8 ng/mL
[1]; [8]
  MIC: 30 ng/mL
[3]
  MIC: 4000 ng/mL (≈ 10.7 µM)
[5]
  MIC: 8000 ng/mL (≈ 21.3 µM)

## CN(Cc1cc2ccccc2n1C)C(=O)/C=C/c1cnc2[nH]cnc2c1 [VT-02-00060, (E)-3-(3H-imidazo[4,5-b]pyridin-6-yl)-N-methyl-N-((1-methyl-1H-indol-2-yl)methyl)acrylamide]
[3]
  MIC: > 16000 ng/mL
[5]
  MIC: > 16000 ng/mL

## COc1n[nH]c2ncc(/C=C/C(=O)N(C)Cc3cc4ccccc4n3C)cc12 [VT-02-00046, (E)-3-(3-Methoxy-1H-pyrazolo[3,4-b]pyridin-5-yl)-N-methyl-N-(1-methyl-1H-indol-2-ylmethyl)-acrylamide]
[1]; [7]
  MIC: > 32000 ng/mL
[1]; [8]
  MIC: > 32000 ng/mL
[3]
  MIC: > 32000 ng/mL
[5]
  MIC: > 32000 ng/mL

## CCn1c(=O)[nH]c2ncc(/C=C/C(=O)N(C)Cc3cc4ccccc4s3)cc21 [VT-02-00049, (E)-N-(benzo[b]thiophen-2-ylmethyl)-3-(1-ethyl-2-oxo-2,3-dihydro-1H-imidazo[4,5-b]pyridin-6-yl)-N-methylacrylamide]
[1]; [7]
  MIC: 0.48 ng/mL
[1]; [8]
  MIC: 31 ng/mL
[2]
  Metabolic stability (mouse liver microsomes) % of compound remaining after 30 minutes: 44%
[3]
  MIC: 500 ng/mL (≈ 1.27 µM)
[5]
  MIC: 500 ng/mL (≈ 1.27 µM)

## CN(Cc1cc2ccccc2n1C)C(=O)/C=C/c1cnc2[nH]nc(N(C)C)c2c1 [VT-02-00039, (E)-3-(3-Dimethylamino-1H-pyrazolo[3,4-b]pyridin-5-yl)-N-methyl-N-(1-methyl-1H-indol-2-ylmethyl)-acrylamide]
[1]; [7]
  MIC: 60 ng/mL
[1]; [8]
  MIC: 1000 ng/mL
[2]
  Metabolic stability (mouse liver microsomes) % of compound remaining after 30 minutes: 46%
[3]
  MIC: 2000 ng/mL (≈ 5.15 µM)
[6]; [9]
  AUC: 908 ng·h/mL
  Cmax: 868 ng/mL
  clearance: 91.5 mL/min/kg
  half-life: 46.2 min
[6]; po
  bioavailability: 19%
[5]
  MIC: 2000 ng/mL (≈ 5.15 µM)

## Cc1c(CN(C)C(=O)/C=C/c2cnc3c(c2)C2(CCC2)C(=O)N3)oc2ccccc12 [VT-02-00092, (E)-N-methyl-N-((3-methylbenzofuran-2-yl)methyl)-3-(2′-oxo-1′,2′-dihydrospiro[cyclobutane-1,3′-pyrrolo[2,3-b]pyridine]-5′-yl)acrylamide]
[1]; [8]
  MIC: 3.9 ng/mL
[2]
  Metabolic stability (mouse liver microsomes) % of compound remaining after 30 minutes: 22%
[3]
  MIC: 60 ng/mL (≈ 0.149 µM)
[4]
  MIC: 250 ng/mL
[5]
  MIC: 60 ng/mL (≈ 0.149 µM)

## CN(Cc1cn(C)c2ccccc12)C(=O)/C=C/c1ccc2c(c1)C1(CCC1)C(=O)N2 [VT-02-00085, (E)-N-methyl-N-((1-methyl-1H-indol-3-yl)methyl)-3-(2′-oxospiro[cyclobutane-1,3′-indoline]-5′-yl)acrylamide]
[1]; [7]
  MIC: 0.97 ng/mL
[1]; [8]
  MIC: 60 ng/mL
[2]
  Metabolic stability (mouse liver microsomes) % of compound remaining after 30 minutes: 33%
[3]
  MIC: 60 ng/mL (≈ 0.15 µM)
[4]
  MIC: 1000 ng/mL
[5]
  MIC: 60 ng/mL (≈ 0.15 µM)

## CN(Cc1cc2ccccc2n1C)C(=O)/C=C/c1ccc2[nH]c3ncccc3c2c1 [VT-02-00034a, (E)-N-methyl-N-((1-methyl-1H-indol-2-yl)methyl)-3-(9H-pyrido[2,3-b]indol-6-yl)acrylamide]
[3]
  MIC: > 32000 ng/mL
[5]
  MIC: > 32000 ng/mL

## CN(Cc1cc2ccccc2n1C)C(=O)/C=C/c1cnc2c(c1)C1(CCC1)C(=O)N2 [VT-02-00070, (E)-N-methyl-N-((1-methyl-1H-indol-2-yl)methyl)-3-(2′-oxo-1′,2′-dihydrospiro[cyclobutane-1,3′-pyrrolo[2,3-b]pyridine]-5′-yl)acrylamide]
[1]; [7]
  MIC: < 0.000119 ng/mL
[1]; [8]
  MIC: 7.8 ng/mL
[2]
  Metabolic stability (mouse liver microsomes) % of compound remaining after 30 minutes: 45%
[3]
  MIC: 500 ng/mL (≈ 1.25 µM)
[4]
  MIC: 2000 ng/mL
[5]
  MIC: 500 ng/mL (≈ 1.25 µM)

## CN(Cc1cc2ccccc2n1C)C(=O)/C=C/c1cnc2[nH]c(=O)[nH]c2c1 [VT-02-00002, (E)-N-methyl-N-((1-methyl-1H-indol-2-yl)methyl)-3-(2-oxo-2,3-dihydro-1H-imidazo[4,5-b]pyridin-6-yl)acrylamide]
[1]; [7]
  MIC: 60 ng/mL
[1]; [8]
  MIC: 1000 ng/mL
[3]
  MIC: 1000 ng/mL (≈ 2.77 µM)
[5]
  MIC: 2000 ng/mL (≈ 5.53 µM)

## CCNc1n[nH]c2ncc(/C=C/C(=O)N(C)Cc3cc4ccccc4n3C)cc12 [VT-02-00038, (E)-3-(3-(ethylamino)-1H-pyrazolo[3,4-b]pyridin-5-yl)-N-methyl-N-((1-methyl-1H-indol-2-yl)methyl)acrylamide]
[3]
  MIC: > 32000 ng/mL
[5]
  MIC: > 32000 ng/mL

## CCn1c(=O)[nH]c2ncc(/C=C/C(=O)N(C)Cc3nc4ccccc4s3)cc21 [VT-02-00054, (E)-N-(benzo[d]thiazol-2-ylmethyl)-3-(1-ethyl-2-oxo-2,3-dihydro-1H-imidazo[4,5-b]pyridin-6-yl)-N-methylacrylamide]
[3]
  MIC: > 16000 ng/mL
[5]
  MIC: > 16000 ng/mL

## Cn1c2c(c3ccccc31)CN(C(=O)/C=C/c1cnc3c(c1)C1(CCC1)C(=O)N3)CC2 [VT-02-00082, (E)-5′-(3-(5-methyl-3,4-dihydro-1H-pyrido[4,3-b]indol-2(5H)-yl)-3-oxoprop-1-enyl)spiro[cyclobutane-1,3′-pyrrolo[2,3-b]pyridin]-2′(1′H)-one]
[3]
  MIC: > 8000 ng/mL
[5]
  MIC: > 8000 ng/mL

## CN(Cc1cc2ccccc2n1C)C(=O)/C=C/c1cnc2[nH]nc(N)c2c1 [VT-02-00029a, (E)-3-(3-amino-1H-pyrazolo[3,4-b]pyridin-5-yl)-N-methyl-N-((1-methyl-1H-indol-2-yl)methyl)acrylamide]
[1]; [7]
  MIC: 30 ng/mL
[1]; [8]
  MIC: 500 ng/mL
[3]
  MIC: 1000 ng/mL (≈ 2.77 µM)
[5]
  MIC: 2000 ng/mL (≈ 5.55 µM)

## CNc1n[nH]c2ncc(/C=C/C(=O)N(C)Cc3cc4ccccc4n3C)cc12 [VT-02-00036, (E)-N-Methyl-3-(3-methylamino-1H-pyrazolo[3,4-b]pyridin-5-yl)-N-(1-methyl-1H-indol-2-ylmethyl)-acrylamide]
[1]; [7]
  MIC: 500 ng/mL
[1]; [8]
  MIC: 2000 ng/mL
[3]
  MIC: 8000 ng/mL (≈ 21.4 µM)
[5]
  MIC: 8000 ng/mL (≈ 21.4 µM)
